Experimental data taken from patent US12338256B2, “Aza-tetracyclic oxazepine compounds and uses thereof” (Genentech, Inc., priority 2022, dated 2025).

How the values were obtained:
Type in all cases: cell-based
[1] = system: HPAC (homozygous mutant KRAS G12D human pancreatic cell line); assay: KRAS 3D-Cell Proliferation Assay, HPAC (Example 503); conditions: Homo sapiens, HPAC, 168 h, HPAC 3D culture, 7 days, CellTiter-Glo 3D; read-out: Prolif HPAC 3D ATP IC50
Method in brief: (§1)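 IC50s come from a 4-parameter Hill fit of luminescence (CellTiter-Glo 3D) normalized between DMSO (0%) and 1 μM staurosporine (100%). Cells in low-attachment 3D culture, RPMI-1640 with 10% FBS, received serial compound dilutions (0.3% DMSO) after overnight and were incubated 7 days at 37 °C.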

[2] = system: AsPC-1 (homozygous mutant KRAS G12D human pancreatic cell line); assay: KRAS 3D-Cell Proliferation Assay, AsPC-1 (Example 503); conditions: Homo sapiens, ASPC1, 168 h, AsPC-1 3D culture, 7 days, CellTiter-Glo 3D; read-out: Prolif AsPC-1 3D ATP IC50
Procedure: Example 503: KRAS 3D-Cell Proliferation Assays. Cellular potencies of compounds are assessed by evaluating inhibition of proliferation in 3D cultures of homozygous mutant KRAS G12D human pancreatic cell lines (AsPC-1 and HPAC) as compared to a KRAS wild type human lung adenocarcinoma cell line (PC-9 and/or H1975). Cells are seeded into 384-well black round-bottom, ultra-low attachment assay plates in 50 uL cell growth medium (RPMI-1640 with 10% fetal bovine serum and 2 mM L-glutamine). After overnight incubation at 37° C. and 5% CO2, compounds solubilized in DMSO are added as dilution series to the wells in a total volume of 150 nL (0.3% DMSO final). The cells are incubated for 7 days at 37° C. and 5% CO2. Cell proliferation is quantitated by addition of 40 uL/well of CellTiter-GloÒ 3D (Promega), and the well contents are mixed 20× at high speed using liquid handling automation workstation (Bravo with 384-well head) and centrifuged at 1500 rpm for 2 minutes to eliminate bubbles. This reagent in combination with mechanical disruption releases the cellular ATP to promote activity in a luciferase-based enzyme/substrate chemiluminescent detection system. After a 30-minute incubation under ambient conditions with shaking and an additional 10 minutes without shaking, the luminescence is read on a plate reader (e.g., EnVision [PerkinElmer]). The results are normalized to percent inhibition based on the following control samples: DMSO (0% inhibition) and 1 μM staurosporine (100% inhibition). The normalized luminescence results are plotted against compound concentration, and the data are fit to a 4-parameter Hill equation to determine the IC50 values.

[3] = system: H1975 (KRAS wild type human lung adenocarcinoma cell line); assay: KRAS 3D-Cell Proliferation Assay, H1975 (Example 503); conditions: Homo sapiens, NCI-H1975, 168 h, H1975 3D culture, 7 days, CellTiter-Glo 3D; read-out: Prolif H1975 3D ATP IC50
Method in brief: as §1

Structure (SMILES): Cc1c(F)c(N)cc(-c2nc3c4c(nc(OCC56C[C@@H](F)CN5C[C@H](F)C6)nc4c2F)N2C[C@H]4CC[C@H](N4)[C@H]2[C@H](C)O3)c1C(F)(F)F [Compound 140, 5-((5S,5aS,6S,9R)-12-(((2R,6R)-2,6-Difluorotetrahydro-1H-pyrrolizin-7a(5H)-yl)methoxy)-1-fluoro-5-methyl-5a,6,7,8,9,10-hexahydro-5H-4-oxa-3,10a,11,13,14-pentaaza-6,9-methanonaphtho[1,8-ab]heptalen-2-yl)-2-fluoro-3-methyl-4-(trifluoromethyl)aniline]
- IC50 [1]: 2.53 nM
- IC50 [2]: 4.4 nM
- IC50 [3]: 2060 nM

Structure (SMILES): Cc1c(F)c(N)cc(-c2nc3c4c(nc(OCC5(CN6CCOCC6)CC5)nc4c2F)N2C[C@H]4CC[C@H](N4)[C@H]2[C@H](C)O3)c1CC(F)F [Compound 156, 4-(2,2-Difluoroethyl)-2-fluoro-5-((5S,5aS,6S,9R)-1-fluoro-5-methyl-12-((1-(morpholinomethyl)cyclopropyl)methoxy)-5a,6,7,8,9,10-hexahydro-5H-4-oxa-3,10a,11,13,14-pentaaza-6,9-methanonaphtho[1,8-ab]heptalen-2-yl)-3-methylaniline]
- IC50 [1]: 2.94 nM
- IC50 [2]: 9.4 nM
- IC50 [3]: 776 nM

Structure (SMILES): Cc1c(F)c(N)cc(-c2nc3c4c(nc(OC[C@H]5[C@@H](O)CCN5C)nc4c2F)N2C[C@H]4CC[C@H](N4)[C@H]2[C@H](C)O3)c1C(F)(F)F [Compound 162, (2S,3S)-2-((((5S,5aS,6S,9R)-2-(5-Amino-4-fluoro-3-methyl-2-(trifluoromethyl)phenyl)-1-fluoro-5-methyl-5a,6,7,8,9,10-hexahydro-5H-4-oxa-3,10a,11,13,14-pentaaza-6,9-methanonaphtho[1,8-ab]heptalen-12-yl)oxy)methyl)-1-methylpyrrolidin-3-ol]
- IC50 [1]: 48.7 nM
- IC50 [2]: 200 nM
- IC50 [3]: 9450 nM

Structure (SMILES): Cc1c(F)c(N)cc(-c2nc3c4c(nc(OCC5(CN6CCO[C@H](C)C6)CC5)nc4c2F)N2C[C@H]4CC[C@H](N4)[C@H]2[C@H](C)O3)c1C(F)(F)F [Compound 168, 2-Fluoro-5-((5S,5aS,6S,9R)-1-fluoro-5-methyl-12-((1-(((R)-2-methylmorpholino)methyl)cyclopropyl)methoxy)-5a,6,7,8,9,10-hexahydro-5H-4-oxa-3,10a,11,13,14-pentaaza-6,9-methanonaphtho[1,8-ab]heptalen-2-yl)-3-methyl-4-(trifluoromethyl)aniline]
- IC50 [1]: 0.472 nM
- IC50 [2]: 0.7 nM
- IC50 [3]: 656 nM

Structure (SMILES): Cc1c(F)c(N)cc(-c2nc3c4c(nc(OCC5(CN6C[C@H]7C[C@@H]6CO7)CC5)nc4c2F)N2C[C@H]4CC[C@H](N4)[C@H]2[C@H](C)O3)c1C(F)(F)F [Compound 170, 5-((5S,5aS,6S,9R)-12-((1-(((1R,4R)-2-Oxa-5-azabicyclo[2.2.1]heptan-5-yl)methyl)cyclopropyl)methoxy)-1-fluoro-5-methyl-5a,6,7,8,9,10-hexahydro-5H-4-oxa-3,10a,11,13,14-pentaaza-6,9-methanonaphtho[1,8-ab]heptalene-2-yl)-2-fluoro-3-methyl-4-(trifluoromethyl)aniline]
- IC50 [1]: 0.92 nM
- IC50 [2]: 0.8 nM
- IC50 [3]: 506 nM

Structure (SMILES): Cc1c(F)c(N)cc(-c2nc3c4c(nc(OCC5(CN6CC7(COC7)C6)CC5)nc4c2F)N2C[C@H]4CC[C@H](N4)[C@H]2[C@H](C)O3)c1C(F)(F)F [Compound 174, 5-((5S,5aS,6S,9R)-12-((1-((2-Oxa-6-azaspiro[3.3]heptan-6-yl)methyl)cyclopropyl)methoxy)-1-fluoro-5-methyl-5a,6,7,8,9,10-hexahydro-5H-4-oxa-3,10a,11,13,14-pentaaza[6,9]methanonaphtho[1,8-ab]heptalene-2-yl)-2-fluoro-3-methyl-4-(trifluoromethyl)aniline]
- IC50 [1]: 3.86 nM
- IC50 [2]: 1.3 nM
- IC50 [3]: 227 nM

Structure (SMILES): Cc1cc2[nH]ncc2c(-c2nc3c4c(nc(OC[C@@]56CCCN5C[C@H](F)C6)nc4c2F)N2C[C@H]4CC[C@H](N4)[C@H]2[C@H](C)O3)c1Cl [Compound 176, (5S,5aS,6S,9R)-2-(5-Chloro-6-methyl-1H-indazol-4-yl)-1-fluoro-12-(((2R,7aS)-2-fluorotetrahydro-1H-pyrrolizin-7a(5H)-yl)methoxy)-5-methyl-5a,6,7,8,9,10-hexahydro-5H-4-oxa-3,10a,11,13,14-pentaaza-6,9-methanonaphtho[1,8-ab]heptalene]
- IC50 [1]: 168 nM
- IC50 [2]: 200 nM
- IC50 [3]: 15200 nM

Structure (SMILES): Cc1cc(N)c(F)c(-c2nc3c4c(nc(OC[C@@]56CCCN5C[C@H](F)C6)nc4c2F)N2C[C@H]4CC[C@H](N4)[C@H]2[C@H](C)O3)c1CC(F)(F)F [Compound 182, 2-Fluoro-3-((5S,5aS,6S,9R)-1-fluoro-12-(((2R,7aS)-2-fluorotetrahydro-1H-pyrrolizin-7°(5H)-yl)methoxy)-5-methyl-5°,6,7,8,9,10-hexahydro-5H-4-oxa-3,10°,11,13,14-pentaaza-6,9-methanonaphtho[1,8-ab]heptalen-2-yl)-5-methyl-4-(2,2,2-trifluoroethyl)aniline]
- IC50 [1]: 4.12 nM
- IC50 [2]: 8.3 nM
- IC50 [3]: 1910 nM

Structure (SMILES): C[C@@H]1Oc2nc(-c3cc(N)c(F)c(F)c3CC(F)(F)F)c(F)c3nc(OC[C@@]45CCCN4C[C@H](F)C5)nc(c23)N2C[C@H]3CC[C@H](N3)[C@@H]12 [Compound 183, 2,3-Difluoro-5-((5S,5aS,6S,9R)-1-fluoro-12-(((2R,7aS)-2-fluorotetrahydro-1H-pyrrolizin-7a(5H)-yl)methoxy)-5-methyl-5a,6,7,8,9,10-hexahydro-5H-4-oxa-3,10a,11,13,14-pentaaza-6,9-methanonaphtho[1,8-ab]heptalene-2-yl)-4-(2,2,2-trifluoroethyl)aniline]
- IC50 [1]: 2.32 nM
- IC50 [2]: 4.2 nM
- IC50 [3]: 852 nM

Structure (SMILES): C[C@@H]1Oc2nc(-c3cc(N)c(F)c(Cl)c3CC(F)F)c(F)c3nc(OC[C@@]45CCCN4C[C@H](F)C5)nc(c23)N2C[C@H]3CC[C@H](N3)[C@@H]12 [Compound 186, 3-Chloro-4-(2,2-difluoroethyl)-2-fluoro-5-((5S,5aS,6S,9R)-1-fluoro-12-(((2R,7aS)-2-fluorotetrahydro-1H-pyrrolizin-7a(5H)-yl)methoxy)-5-methyl-5a,6,7,8,9,10-hexahydro-5H-4-oxa-3,10a,11,13,14-pentaaza-6,9-methanonaphtho[1,8-ab]heptalene-2-yl)aniline]
- IC50 [1]: 2.58 nM
- IC50 [2]: 8.9 nM
- IC50 [3]: 1090 nM

Structure (SMILES): C[C@@H]1Oc2nc(-c3cc(N)c(F)c(F)c3CC(F)F)c(F)c3nc(OC[C@@]45CCCN4C[C@H](F)C5)nc(c23)N2C[C@H]3CC[C@H](N3)[C@@H]12 [Compound 190, 4-(2,2-Difluoroethyl)-2,3-difluoro-5-((5S,5aS,6S,9R)-1-fluoro-12-(((2R,7aS)-2-fluorotetrahydro-1H-pyrrolizin-7a(5H)-yl)methoxy)-5-methyl-5a,6,7,8,9,10-hexahydro-5H-4-oxa-3,10a,11,13,14-pentaaza-6,9-methanonaphtho[1,8-ab]heptalene-2-yl)aniline]
- IC50 [1]: 2.2 nM
- IC50 [2]: 12.6 nM
- IC50 [3]: 1560 nM

Structure (SMILES): Cc1nc(N)c(F)c(-c2nc3c4c(nc(OC[C@@]56CCCN5C[C@H](F)C6)nc4c2F)N2C[C@H]4CC[C@H](N4)[C@H]2[C@H](C)O3)c1C(F)(F)F [Compound 194, 3-Fluoro-4-((5S,5aS,6S,9R)-1-fluoro-12-(((2R,7aS)-2-fluorotetrahydro-1H-pyrrolizin-7a(5H)-yl)methoxy)-5-methyl-5a,6,7,8,9,10-hexahydro-5H-4-oxa-3,10a,11,13,14-pentaaza-6,9-methanonaphtho[1,8-ab]heptalen-2-yl)-6-methyl-5-(trifluoromethyl)pyridin-2-amine]
- IC50 [1]: 4.99 nM
- IC50 [2]: 2.7 nM
- IC50 [3]: 919 nM

Structure (SMILES): Cc1nc(N)cc(-c2nc3c4c(nc(OCC5(CN6C7CCC6COC7)CC5)nc4c2F)N2C[C@H]4CC[C@H](N4)[C@H]2[C@H](C)O3)c1C(F)(F)F [Compound 206, 4-((5S,5aS,6S,9R)-12-((1-((3-Oxa-8-azabicyclo[3.2.1]octan-8-yl)methyl)cyclopropyl)methoxy)-1-fluoro-5-methyl-5a,6,7,8,9,10-hexahydro-5H-4-oxa-3,10a,11,13,14-pentaaza-6,9-methanonaphtho[1,8-ab]heptalene-2-yl)-6-methyl-5-(trifluoromethyl)pyridin-2-amine]
- IC50 [1]: 3.16 nM
- IC50 [2]: 3.6 nM
- IC50 [3]: 2840 nM
